One assay relates to B. subtilis. It is filed as cell-based, Bacillus subtilis (ATCC 9372). The conditions noted are these: ppm of silver, organism not given. How it is done: (§1) Antibacterial properties of C—S CuSiNP and AgSiNG materials were evaluated against a gram positive Bacillus subtilis (B. subtilis, ATCC 9372) and a gram negative Escherichia coli (E. coli, ATCC 35218) organism. For all antibacterial assays, bacterial concentration of 10^5 cells/mL was considered. Copper sulfate with same metallic copper concentration was used as positive controls and silica nanoparticle (without Cu loading) was used as negative control.
(§2) Two sets of different concentrations of C—S CuSiNP were made in LB broth (0.49, 1.2, 2.4, 4.9, 7.2 and 9.8 ppm copper concentration) to a final volume of 10 mL. 250 μL (10^5 cells/mL) of E. coli and B. subtilis were added to set 1 and 2 respectively. Silica nanoparticle was used as negative control and copper sulfate with equivalent amount of copper was used as positive control. […]
(§3) The growth inhibitory effects of C—S CuSiNP and AgSiNG against E. coli and B. subtilis were studied in liquid media (FIG. 2.3 and FIG. 2.4). Bacterial growth with different concentrations of C—S CuSiNP and AgSiNG (0.49 to 9.8 μg mL^−1) was monitored after 24 hours of incubation at 37° C. by measuring the optical density at 600 nm using Teysche800 spectrophotometer. Since the turbidity of silica based material can interfere with the optical density reading, the background measurement was subtracted to calculate the final reading.

The subject of a further assay is E. coli. It is filed as cell-based, Escherichia coli (ATCC 35218). The conditions noted are these: ppm of silver, organism not given. The procedure: as §1, §2, §3

Take `O=[N+]([O-])[O-].[Ag+]` [silver nitrate]: the “silver concentration at which growth inhibition can be seen” value in the assay on B. subtilis and in the assay on E. coli was 2.4 ppm in each case.

Values taken from US20130108702A1, “COPPER/SILICA NANOPARTICLES, METHODS OF MAKING, AND METHODS OF USE” (priority 2011, published 2013).
